According to US20250262336A1, “[177LU] LUTETIUM-PSMA I&T COMPOSITION AND DOSIMETRY, KIT, METHOD OF MAKING, AND METHOD OF USING THEREOF” (Curium US LLC, priority 2023, published 2025):

Assay: Cycle 1 normal organ dosimetry (SPECT/CT, TIACs, OLINDA 2.2.3)
Format: in vivo, human
Details: for Absorbed Dose in Cycle 1, Mean / Absorbed Dose in Cycle 1, max / Absorbed Dose in Cycle 1, min: N = 16 patients imaged at cycle 1 and 3; for Absorbed Dose, Mean / Absorbed Dose, max / Absorbed Dose, median / Absorbed Dose, min: Cycle 1, n = 26
Description: This Example presents the biodistribution, dosimetry, and pharmacokinetics (PK) results of a PK/Dosimetry sub-study performed as part of a Phase III trial. Twenty-seven (27) patients were administered a target activity of 7.4±10% GBq of ^177Lu-PSMA-I&T and underwent single photon emission computed tomography (SPECT)/computed tomography (CT) imaging at four timepoints (4 h, 24 h, 48 h, and 168 h). Image data was analysed to compute time-activity curves (TACs) and subsequently time-integrated activity coefficients (TIACs) in each organ of interest and in organs showing appreciable and meaningful ^177Lu-PSMA-I&T activity. Organ Level Internal Dose Assessment (OLINDA 2.2.3) was used to compute organ and whole body absorbed radiation doses for each patient.
All participating sites underwent a rigorous site setup process during which all dose calibrators, scanners, and gamma counters used in the sub-study were calibrated. Sites were allowed to enroll patients in the sub-study only after the completion and approval of all site setup processes by Invicro. Patients underwent SPECT/CT imaging, with anatomical coverage typically extending from the salivary glands to the pelvis, following the administration of a targeted 7.4±10% GBq of ^177Lu-PSMA-I&T at cycle 1. SPECT/CT imaging was performed at four timepoints: 4 h, 24 h, 48 h, and 168 h post-injection. Additionally, a subset of patients imaged at Cycle 1 (16 out of 27), were also imaged at Cycle 3 (Table 2).
In general, raw projection data was acquired into a 128×128 matrix with medium energy general purpose (MEGP) collimation using a step and shoot acquisition mode, acquiring 60 projections per detector (180 degrees rotation per detector), 20 seconds per projection, with an acquisition zoom of 1.0, and a 20% (±10%) energy window centered over 208 keV.
A low-dose CT scan was performed prior to beginning the SPECT scan for attenuation correction. Sites were instructed to use the Institutional standard parameters for acquisition of the low-dose CT. Institutional standard reconstruction parameters were used. Scatter correction was required to be applied using a 20% (±10%) scatter window centered over 170 keV.
The imaging data was analyzed using Invicro's VivoQuant software, a validated software used in a 21 CFR § 11-compliant workflow. The general quantification approach was based on the principles detailed in the Medical Internal Radiation Dose (MIRD) Pamphlet No. 16, No 23, and No 26 as appropriate.
SPECT images were calibrated in units of Becquerel (Bq) using a calibration factor derived from a source of known activity, measured during site set up with the same acquisition and reconstruction parameters employed for patient imaging. A patient-specific calibration factor was also derived at each clinical time point after acquisition of the patient SPECT/CT. As a quality control measure, if the patient-specific calibration factor differed by more than 10% from the site set up calibration factor, an investigation was conducted.
Volume of interest (VOI) (kidneys, bladder, liver, lumbar vertebrae L2-L4, lacrimal glands, salivary glands [parotid and submandibular glands], and whole body) were delineated on each dataset by a trained image analyst. […] Organs were segmented either by drawing the entire contour of the organ, or by placing a sphere in a representative region of the organ and then multiplying by the organ's effective mass (based on patient's height and weight). Segmentation methods for each organ are specified in Table 3 and were consistently applied to each patient.
Clearance of the radiopharmaceutical was derived from a data-appropriate fit of each organ's TAC. Depending on the TAC's shape, the data was fitted with the sum of one, two, or three exponentials, or using a rise and fall model. Fitting was performed with in-house Python software. TIACs were calculated through analytical integration of the curve fit extrapolated to infinity. […]

[1] = cycle 1, target 7.4±10% GBq, mean±SD, patient 42-030 excluded

O=C(O)CC[C@H](NC(=O)N[C@@H](CCCCNC(=O)CCCCCCC(=O)NCCCC[C@@H](NC(=O)[C@@H](Cc1ccccc1)NC(=O)[C@@H](Cc1ccc(O)c(I)c1)NC(=O)CC[C@H](C(=O)O)N1CCN(CC(=O)O)CCN(CC(=O)O)CCN(CC(=O)O)CC1)C(=O)O)C(=O)O)C(=O)O [^177Lu-PSMA-I&T, (3S,7 S,26R,29R,32R,37R)-29-benzyl-32-(4-hydroxy-3-iodobenzyl)-5,13,20,28,31,34-hexaoxo-37-(4,7,10-tris(carboxymethyl)-1,4,7,10-tetraazacyclododecan-1-yl)-4,6,12,21,27,30,33-heptaazaheptatriacontane-1,3,7,26,37-pentacarboxylic acid; lutetium-177 (III), metal not drawn]
Absorbed Dose in Cycle 1, Mean (Prostate): 0.02 Gy/GBq
Absorbed Dose in Cycle 1, max (Prostate): 0.07 Gy/GBq
Absorbed Dose in Cycle 1, min (Prostate): 0.01 Gy/GBq
Absorbed Dose, Mean (Rectum): 0.44 Gy/GBq
Absorbed Dose, max (Rectum): 1.46 Gy/GBq
Absorbed Dose, median (Rectum): 0.39 Gy/GBq
Absorbed Dose, min (Rectum): 0.01 Gy/GBq
Absorbed Dose in Cycle 1, Mean (Rectum): 0.50 Gy/GBq
Absorbed Dose in Cycle 1, max (Rectum): 1.46 Gy/GBq
Absorbed Dose in Cycle 1, min (Rectum): 0.01 Gy/GBq
Absorbed Dose, Mean (Red Marrow): 0.08 Gy/GBq
Absorbed Dose, max (Red Marrow): 0.49 Gy/GBq
Absorbed Dose, median (Red Marrow): 0.03 Gy/GBq
Absorbed Dose, min (Red Marrow): 0.00 Gy/GBq
Absorbed Dose in Cycle 1, Mean (Red Marrow): 0.05 Gy/GBq
Absorbed Dose in Cycle 1, max (Red Marrow): 0.28 Gy/GBq
Absorbed Dose in Cycle 1, min (Red Marrow): 0.00 Gy/GBq
Absorbed Dose, Mean (Right Colon): 0.25 Gy/GBq
Absorbed Dose, max (Right Colon): 0.82 Gy/GBq
Absorbed Dose, median (Right Colon): 0.22 Gy/GBq
Absorbed Dose, min (Right Colon): 0.01 Gy/GBq
Absorbed Dose in Cycle 1, Mean (Right Colon): 0.28 Gy/GBq
Absorbed Dose in Cycle 1, max (Right Colon): 0.82 Gy/GBq
Absorbed Dose in Cycle 1, min (Right Colon): 0.01 Gy/GBq
Absorbed Dose, Mean (Salivary Glands): 0.19 Gy/GBq
Absorbed Dose, max (Salivary Glands): 0.80 Gy/GBq
Absorbed Dose, median (Salivary Glands): 0.15 Gy/GBq
Absorbed Dose, min (Salivary Glands): 0.03 Gy/GBq
Absorbed Dose in Cycle 1, Mean (Salivary Glands): 0.17 Gy/GBq
Absorbed Dose in Cycle 1, max (Salivary Glands): 0.80 Gy/GBq
Absorbed Dose in Cycle 1, min (Salivary Glands): 0.03 Gy/GBq
Absorbed Dose, Mean (Small intestine): 0.05 Gy/GBq
Absorbed Dose, max (Small intestine): 0.15 Gy/GBq
Absorbed Dose, median (Small intestine): 0.04 Gy/GBq
Absorbed Dose, min (Small intestine): 0.01 Gy/GBq
Absorbed Dose in Cycle 1, Mean (Small intestine): 0.06 Gy/GBq
Absorbed Dose in Cycle 1, max (Small intestine): 0.15 Gy/GBq
Absorbed Dose in Cycle 1, min (Small intestine): 0.01 Gy/GBq
Absorbed Dose, Mean (Spleen): 0.03 Gy/GBq
Absorbed Dose, max (Spleen): 0.11 Gy/GBq
Absorbed Dose, median (Spleen): 0.02 Gy/GBq
Absorbed Dose, min (Spleen): 0.01 Gy/GBq
Absorbed Dose in Cycle 1, Mean (Spleen): 0.03 Gy/GBq
Absorbed Dose in Cycle 1, max (Spleen): 0.11 Gy/GBq
Absorbed Dose in Cycle 1, min (Spleen): 0.01 Gy/GBq
Absorbed Dose, Mean (Stomach Wall): 0.02 Gy/GBq
Absorbed Dose, max (Stomach Wall): 0.07 Gy/GBq
Absorbed Dose, median (Stomach Wall): 0.01 Gy/GBq
Absorbed Dose, min (Stomach Wall): 0.00 Gy/GBq
Absorbed Dose in Cycle 1, Mean (Stomach Wall): 0.02 Gy/GBq
Absorbed Dose in Cycle 1, max (Stomach Wall): 0.07 Gy/GBq
Absorbed Dose in Cycle 1, min (Stomach Wall): 0.00 Gy/GBq
Absorbed Dose, Mean (Testes): 0.01 Gy/GBq
Absorbed Dose, max (Testes): 0.07 Gy/GBq
Absorbed Dose, median (Testes): 0.01 Gy/GBq
Absorbed Dose, min (Testes): 0.00 Gy/GBq
Absorbed Dose in Cycle 1, Mean (Testes): 0.01 Gy/GBq
Absorbed Dose in Cycle 1, max (Testes): 0.07 Gy/GBq
Absorbed Dose in Cycle 1, min (Testes): 0.00 Gy/GBq
Absorbed Dose, Mean (Thymus): 0.01 Gy/GBq
Absorbed Dose, max (Thymus): 0.07 Gy/GBq
Absorbed Dose, median (Thymus): 0.01 Gy/GBq
Absorbed Dose, min (Thymus): 0.00 Gy/GBq
Absorbed Dose in Cycle 1, Mean (Thymus): 0.01 Gy/GBq
Absorbed Dose in Cycle 1, max (Thymus): 0.07 Gy/GBq
Absorbed Dose in Cycle 1, min (Thymus): 0.00 Gy/GBq
Absorbed Dose, Mean (Thyroid): 0.01 Gy/GBq
Absorbed Dose, max (Thyroid): 0.07 Gy/GBq
Absorbed Dose, median (Thyroid): 0.01 Gy/GBq
Absorbed Dose, min (Thyroid): 0.00 Gy/GBq
Absorbed Dose in Cycle 1, Mean (Thyroid): 0.01 Gy/GBq
Absorbed Dose in Cycle 1, max (Thyroid): 0.07 Gy/GBq
Absorbed Dose in Cycle 1, min (Thyroid): 0.00 Gy/GBq
Absorbed Dose, Mean (Total Body): 0.02 Gy/GBq
Absorbed Dose, max (Total Body): 0.09 Gy/GBq
Absorbed Dose, median (Total Body): 0.02 Gy/GBq
Absorbed Dose, min (Total Body): 0.01 Gy/GBq
Absorbed Dose in Cycle 1, Mean (Total Body): 0.02 Gy/GBq
Absorbed Dose in Cycle 1, max (Total Body): 0.09 Gy/GBq
Absorbed Dose in Cycle 1, min (Total Body): 0.01 Gy/GBq
Absorbed Dose, Mean (Urinary Bladder wall): 0.41 Gy/GBq
Absorbed Dose, max (Urinary Bladder wall): 0.50 Gy/GBq
Absorbed Dose, median (Urinary Bladder wall): 0.41 Gy/GBq
Absorbed Dose, min (Urinary Bladder wall): 0.33 Gy/GBq
Absorbed Dose in Cycle 1, Mean (Urinary Bladder wall): 0.40 Gy/GBq
Absorbed Dose in Cycle 1, max (Urinary Bladder wall): 0.47 Gy/GBq
Absorbed Dose in Cycle 1, min (Urinary Bladder wall): 0.33 Gy/GBq
mean red marrow absorbed dose, remaining 20 patients (cycle 1, excluding six patients with unusually high marrow doses and the patient with a superscan): 0.02±0.02 Gy/GBq
mean red marrow (bone marrow) absorbed radiation dose (cycle 1, image-based method (L2-L4), mean±SD, patient 42-030 excluded): 0.08±0.12 Gy/GBq
absorbed radiation dose per gram of tissue, kidneys [1]: 0.41±0.15 Gy/GBq
absorbed radiation dose per gram of tissue, lacrimal glands [1]: 0.40±0.36 Gy/GBq
absorbed radiation dose per gram of tissue, left colon [1]: 0.47±0.31 Gy/GBq
absorbed radiation dose per gram of tissue, rectum [1]: 0.44±0.30 Gy/GBq
absorbed radiation dose per gram of tissue, urinary bladder [1]: 0.41±0.05 Gy/GBq
absorbed radiation dose per gram of tissue, salivary glands (cycle 1, target 7.4±10% GBq, mean±SD, patients 42-030 and 12-004 excluded): 0.19±0.16 Gy/GBq
